Test results reported in patent US20040248918A1, “N-phenyl-2-pyrimidine-amine derivatives and process for the preparation thereof” (IL YANG PHARM. CO., LTD., priority 2003, published 2004).
In brackets after ≈: the same amount, converted by molar mass. Counter-ions that a name gives are not always drawn. Blank lines part the entries; values can stand above or below the compound they belong to.

Legend:
[1] = system: colon cancer cell of SNU-C1; assay: Growth inhibition of SNU-C1 (MTT); assay type: cell-based
[2] = system: pancreatic cancer cell of CAPAN-2; assay: Growth inhibition of CAPAN-2 (MTT); assay type: cell-based; settings: CAPAN-2
[3] = system: pancreatic cancer cell of PANC-1; assay: Growth inhibition of PANC-1 (MTT); assay type: cell-based
[4] = system: encephalophyma cell of A172; assay: Growth inhibition of A172 (MTT); assay type: cell-based
Experimental: (§1) In the present experiment, the inhibitory activity of the compound of formula (1) was determined against the growth of K562 cancer cell. First, the cells were allowed to stand in RPMI (Roswell Park Memorial Institute)-1640 medium containing 10% (v/v) fetal bovine serum in an incubator of 37° C. and 5% by volume of CO2. The cancer cells (1000 cells) were transferred to a 96-well plate, and the test compound was diluted. The plate was allowed to stand under the above mentioned conditions for 2 days. After this treatment, to the cells was added 0.2% MTT (3-[4,5-dimethylthiazol-2-yl]-2,5-diphenyltetrazolium bromide) solution, and the resulting mixture was allowed to stand under the constant temperature-condition for 4 hours. The supernatant was removed to leave the resulting crystal. DMSO was added to dissolve the crystal, and the absorbance of the solution was measured at 540 nm. IC50 value was calculated using a computer system according to the following formula: […]
(§2) The test was performed according to the same procedure as Experiment 1.

[5] = system: rectal cancer cell of CMT-93; assay: Growth inhibition of CMT-93 (MTT); assay type: cell-based
Experimental: as §1, §2

[6] = system: bladder cancer cell of HT-1197; assay: Growth inhibition of HT-1197 (MTT); assay type: cell-based
Experimental: as §1, §2

[7] = system: cervical cancer cell of HeLa229; assay: Growth inhibition of HeLa 229 (MTT); assay type: cell-based
[8] = system: U937 cancer cell (monocyte like leukemia cell line); assay: Growth inhibition of U937 cancer cell (MTT); assay type: cell-based; settings: for IC50: Homo sapiens, U-937
Experimental: as §1
In the present experiment, the inhibitory activity of the compound of formula (1) was determined against the growth of U937 cancer cell. The test was performed according to the same procedure as Experiment 1.

[9] = system: K562 cancer cell (CML cell line); assay: Growth inhibition of K562 cancer cell (MTT); assay type: cell-based; settings: Homo sapiens, K562, 48 h, K562, 2 days, MTT; read-out: IC50
Experimental: In the present experiment, the inhibitory activity of the compound of formula (1) was determined against the growth of K562 cancer cell. First, the cells were allowed to stand in RPMI (Roswell Park Memorial Institute)-1640 medium containing 10% (v/v) fetal bovine serum in an incubator of 37° C. and 5% by volume of CO2. The cancer cells (1000 cells) were transferred to a 96-well plate, and the test compound was diluted. The plate was allowed to stand under the above mentioned conditions for 2 days. […] The supernatant was removed to leave the resulting crystal.

[10] = system: L1210 cancer cell (leukemia cell line); assay: Growth inhibition of L1210 cancer cell (MTT); assay type: cell-based; settings: for IC50: Mus musculus
Experimental: as §1
In the present experiment, the inhibitory activity of the compound of formula (1) was determined against the growth of L1210 cancer cell. The test was performed according to the same procedure as Experiment 1.

[11] = Comparative pharmacokinetic test in white rats; assay type: in vivo, white rats (Sprague-Dawley); settings: male, Sprague-Dawley, plasma, po, rat, P.O.; for AUC: trapezoid rule
Experimental: On the previous day to the test, white rats (Sprague-Dawley, 250˜280 g, male) were put under anesthesia by pentobarbital sodium (50 mg/kg, I.P.). Then, cannula (polyethylene tube; diameter: 0.58mm) was introduced into the rats via the carotid artery and jugular vein, and drawn out to the back. After the operation, the rats were fasted for 16 hours and used for the test. […] Blood was collected in 0, 0.5, 1, 1.5, 2, 2.5, 3, 3.5, 4, 4.5, 5, 6, 8, 10, 12, and 24 hours from the carotid artery. The samples for HPLC analysis were prepared using the collected blood according to the following procedure and were analyzed under the following conditions.
Blood was collected by an amount of 0.5 ml at each prearranged time and centrifuged at 15000 rpm for 7 minutes to separate […] of plasma. In order to remove proteins, MeOH was added in an amount of […], twice as much as the amount of plasma, and the mixture was shaken for 30 minutes. The mixture was centrifuged again at 15000 rpm for 5 minutes to give protein free supernatant, which was then analyzed by HPLC.
Flow rate: 1.0 ml/min, UV detection at 267 nm
Column: 4.6×150 mm, 5C18-AR-II, COSMOSIL
Eluent: Mixture of ion pair sample (420 ml) and MeOH (580 ml)
Ion pair sample: 7.5 g of 1-octanesulfonic acid was dissolved in 800 ml of water. The resulting mixture was adjusted to pH 2.5 using phosphoric acid and diluted with water to 1000 ml volume.
Here, the pharmacokinetic parameters are Tmax (time to reach the maximum blood concentration), Cmax (maximum blood concentration), AUC (area under the curve of time-blood concentration), and T1/2 (half time in blood), and the AUC was calculated under trapezoid rule (see Tables 6, 7 and FIGS. 1, 2).

[12] = system: hematologic malignancy cell (HL-60); assay: Growth inhibition of HL-60 (MTT); assay type: cell-based; settings: Homo sapiens
[13] = system: ovarian cancer cell (SK-OV-03); assay: Growth inhibition of SK-OV-03 (MTT); assay type: cell-based
Experimental: as §1, §2

[14] = Acute toxicity test in mice (oral administration); settings: both sexes, ICR, mouse, in vivo, 2000 mg/kg; mice, oral
Experimental: (§3) In order to determine the acute toxicity of the compound of the present invention when the compound is orally administered, mice (ICR, 24˜26 g) were fasted for 16 hours. One group consists of 10 males and 10 females. The first group is the control group and physiological saline was administered per oral to this group. The compounds of Examples 2 and 4 were orally administered in a dosage of 2000 mg/kg, the maximum dosage in acute toxicity test, to each test group. […] On the last day of the test, 14th day from the start, the mice were subjected to an autopsy in order to examine changes of the internal organs. […] This means that the compounds of the present invention including those of Examples 2 and 4 are safe in the aspect of acute toxicity.

[15] = system: mice (ICR); assay: Acute toxicity test in mice (oral administration); settings: mouse, in vivo, po, 2000 mg/kg
Experimental: as §3

[16] = system: lung cancer cell (A549); assay: Growth inhibition of A549 (MTT); assay type: cell-based; settings: Homo sapiens
Experimental: as §1, §2

[17] = system: acute myelogenous leukemia cell (KG-1); assay: Growth inhibition of KG-1 (MTT); assay type: cell-based
[18] = system: lymphoma cell (RPMI-6666); assay: Growth inhibition of RPMI-6666 (MTT); assay type: cell-based
Experimental: as §1, §2

[19] = system: oral epithelial cancer cell (KB); assay: Growth inhibition of KB (MTT); assay type: cell-based; settings: Homo sapiens
Experimental: as §1, §2

[20] = system: hepatoma cell (SNU-182); assay: Growth inhibition of SNU-182 (MTT); assay type: cell-based; settings: Homo sapiens
Experimental: as §1, §2

[21] = system: gastric cancer cell (KATO III); assay: Growth inhibition of KATO III (MTT); assay type: cell-based; settings: Homo sapiens
Experimental: as §1, §2

[22] = system: breast cancer cell (MCF-7); assay: Growth inhibition of MCF-7 (MTT); assay type: cell-based; settings: Homo sapiens, MCF7
Experimental: as §1, §2

[23] = system: prostatic cancer cell (DU-145); assay: Growth inhibition of DU-145 (MTT); assay type: cell-based; settings: Homo sapiens
Experimental: as §1, §2

SMILES: N.N.[Cl][Pt][Cl] [Cisplatin, cisplatin, reference compound]
IC50 [1]: 302 µg/mL
IC50 [2]: 496.9 µg/mL
IC50 [3]: 41.55 µg/mL
IC50 [4]: 5.7 µg/mL
IC50 [5]: 0.67 µg/mL
IC50 [6]: 7.5 µg/mL
IC50 [7]: 0.9 µg/mL

SMILES: COc1ccc(NC(=O)c2ccc(CNN3CCN(C)CC3)cc2)cc1Nc1nccc(-c2cccnc2)n1.CS(=O)(=O)O [Example 22, 4-(4-methylpiperazin-1-ylaminomethyl)-N-[4-methoxy-3-(4-(pyridin-3-yl)pyrimidin-2-yl)aminophenyl]benzamide methanesulfonate]
melting point: 142 to 144 °C
IC50 [8]: 8.61 µg/mL
IC50 [9]: 10 µg/mL
IC50 [10]: 4.46 µg/mL

SMILES: CS(=O)(=O)O.O=C(Nc1cccc(Nc2nccc(-c3cccnc3)n2)c1)c1ccc(CN2CCCCC2)cc1 [Example 36, 4-(piperidin-1-ylmethyl)-N-[3-(4-(pyridin-3-yl)pyrimidin-2-yl)aminophenyl]benzamide methanesulfonate]
melting point: 173 to 175 °C
IC50 [8]: 6.91 µg/mL
IC50 [9]: 11.3 µg/mL
IC50 [10]: 5.95 µg/mL

Cmax ([11]; 100 mg/kg): 2720 ng/mL
Tmax ([11]; 100 mg/kg): 2.3 h
AUC ([11]; 100 mg/kg): 26500 ng·h/mL
SMILES: Cc1ccc(NC(=O)c2ccc(CN3CCN(C)CC3)cc2)cc1Nc1nccc(-c2cccnc2)n1 [Imatinib mesylate, reference compound]

SMILES: CN1CCCN(Cc2ccc(C(=O)Nc3cccc(Nc4nccc(-c5cccnc5)n4)c3)cc2)CC1.CS(=O)(=O)O [Example 12, 4-(4-methylhomopiperazin-1-ylmethyl)-N-[3-(4-(pyridin-3-yl)pyrimidin-2-yl)aminophenyl]benzamide methanesulfonate]
melting point: 206 to 208 °C
IC50 [8]: 3.41 µg/mL
IC50 [9]: 10.2 µg/mL
Improved activity versus Imatinib mesylate [10]: 32 times
IC50 [10]: 0.99 µg/mL

SMILES: CS(=O)(=O)O.Cc1ccc(Nc2nccc(-c3cccnc3)n2)cc1NC(=O)c1ccc(CNN2CCN(C)CC2)cc1 [Example 8, 4-(4-methylpiperazin-1-ylaminomethyl)-N-[2-methyl-5-(4-(pyridin-3-yl)pyrimidin-2-yl)aminophenyl]benzamide methanesulfonate]
melting point: 150 to 152 °C
IC50 [8]: 9.44 µg/mL
IC50 [9]: 27.6 µg/mL
IC50 [10]: 7.38 µg/mL

SMILES: CS(=O)(=O)O.Cc1ccc(NC(=O)c2ccc(CN3CCCN(C)CC3)cc2)cc1Nc1nccc(-c2cccnc2)n1 [Example 2, 4-(4-methylhomopiperazin-1-ylmethyl)-N-[4-methyl-3-(4-(pyridin-3-yl)pyrimidin-2-yl)aminophenyl]benzamide methanesulfonate]
IC50 [12]: 17.7 µg/mL
IC50 [13]: 38 µg/mL
LD50 at 14 days [14]: ≥ 2000 mg/kg
Clinical conditions and autopsy [15]: neither abnormal response nor specific autopsy result was observed
Mortality during the test period [15]: no mouse died
Cmax ([11]; 50 mg/kg): 2200 ng/mL
Tmax ([11]; 50 mg/kg): 1.5 h
AUC ([11]; 50 mg/kg): 26200 ng·h/mL
IC50 [16]: 27.6 µg/mL
Improved activity versus Imatinib mesylate [8]: 40 times
IC50 [8]: 0.7 µg/mL
IC50 as fraction of that of Imatinib mesylate [17]: ¼
IC50 ([17]; Homo sapiens): 7.31 µg/mL
IC50 as fraction of that of Imatinib mesylate [18]: ½
IC50 ([18]; Homo sapiens): 14.7 µg/mL
IC50 [19]: 31.6 µg/mL
IC50 [9]: 1.2 µg/mL
IC50 [20]: 24.7 µg/mL
IC50 [10]: 7.6 µg/mL
IC50 [21]: 30 µg/mL
IC50 [22]: 36.2 µg/mL
IC50 [23]: 30.3 µg/mL

SMILES: CS(=O)(=O)O.Cc1ccc(Nc2nccc(-c3cccnc3)n2)cc1NC(=O)c1ccc(CN2CCCN(C)CC2)cc1 [Example 6, 4-(4-methylhomopiperazin-1-ylmethyl)-N-[2-methyl-5-(4-(pyridin-3-yl)pyrimidin-2-yl)aminophenyl]benzamide methanesulfonate]
melting point: 168 to 170 °C
IC50 [8]: 5.14 µg/mL
IC50 [9]: 20.5 µg/mL
Improved activity versus Imatinib mesylate [10]: 10 times
IC50 [10]: 3.24 µg/mL

SMILES: COc1ccc(NC(=O)c2ccc(CN3CCCN(C)CC3)cc2)cc1Nc1nccc(-c2cccnc2)n1.CS(=O)(=O)O [Example 20, 4-(4-methylhomopiperazin-1-ylmethyl)-N-[4-methoxy-3-(4-(pyridin-3-yl)pyrimidin-2-yl)aminophenyl]benzamide methanesulfonate]
melting point: 140 to 142 °C
IC50 [8]: 9.51 µg/mL
IC50 [9]: 34.7 µg/mL
IC50 [10]: 4.32 µg/mL

IC50 [1]: 95.3 µg/mL (≈ 733 µM)
IC50 [2]: 1000> μg/ml
IC50 [3]: 553.8 µg/mL (≈ 4260 µM)
IC50 [5]: 1.1 µg/mL (≈ 8.46 µM)
IC50 [6]: 98.5 µg/mL (≈ 757 µM)
IC50 [7]: 81.03 µg/mL (≈ 623 µM)
SMILES: O=c1[nH]cc(F)c(=O)[nH]1 [Example 5-FU, 5-Fu, reference compound]
IC50 [4]: 99 µg/mL (≈ 761 µM)
